US10590079B2, “Cyano-substituted indoles as LSD1 inhibitors” (Novartis AG, priority 2016, dated 2020)
Like-named read-outs stand apart in the source and are kept apart here.

Columns and labels:
[1] = target: T1, full-length LSD1 (Homo sapiens, UniProt O60341); experiment: FL-LSD1 LC-MS assay; type: biochemical; conditions: 0.4 nM FL-LSD1, 0.25 μM FAD, 0.5 μM H3K4me1 peptide, 60 min; read-out: (a) IC50 LC-MS Qualified assay
T1 construct: the full-length LSD1 and 0.5 μM FAD in reaction buffer
Experimental: Representative compounds of the present invention were serially and separately diluted 3-fold in DMSO to obtain a total of twelve concentrations. […] A 5 μL solution of 1 μM of the peptide substrate H3K4me1 (histone H3[1-21]-biotin) in reaction buffer was added to each initiate reaction. […] The conversion ratio of H3K4me1 substrate to the H3K4me0 product was calculated by dividing the peak area of the H3K4me0 peptide by the total peak area of all those two peptides on the assumption that the ionization efficiency of those peptides is the same. The data were then fit to a dose response equation using the program Helios to get the IC50 values of the test compound.

[2] = test system: Molm13 cell; experiment: Anti-proliferation assay in Molm13 cell; type: cell-based, human; conditions: 6 days, cell titer glow, read-out: (b) IC50 anti proliferative assay in molm13 cell
Experimental: Anti-Proliferation Assay in Molm13 Cell
After cell seeding, a compound of the present invention was added to the cell media (in concentrations ranging from 0 to 100 μM, 3× dilution series). After 6 days, 100 ul/well cell titer glow (Promega, cat#G7573) was added into the cell culture, and luminerence was read on Envision (Pelkin Elmer) to determine the viable cells. The percentage inhibition was calculated against the samples treated with DMSO.

[3] = test system: CD11b; experiment: CD11b FACS assay; type: cell-based; conditions: Homo sapiens, THP-1; Thp1 cell, 96 hrs; read-out: (c) IC50 CD11b FACS assay
Experimental: Representative compounds of the present invention were serially and separately diluted 5-fold in DMSO to obtain a total of 6 concentrations. Then the compounds were added to Thp1 cell cultured in 96-well round bottom plate (Costar, Cat#3099) at 1:1000 dilution to obtain the highest concentration of 10 μM. The cells were further cultured for 96 hrs before FACS procedure.
FACS protocol: FACS was performed using standard flowcytometry. Cell was collected and washed with FACS buffer twice (2% heat inactivated FBS in PBS) in 96-well plate, and stained with antibody against CD11b, or isotype control, then washed with FACS buffer for 3 times before reading on Guava 8HT (Merck Millipore) Results were analyzed using Flowjo, and mean fluoreance was calculated and normalized to the cells treated with DMSO. The fold value were then analyzed via Graphpad Prism and fit to a dose response curve to get IC50 value of the test compound. Antibodies for FACS: PE mouse IgG1 k chain (BD Bioscience, #555749), PE mouse anti human CD11b (BD Bioscience, #555388)

Which IC50 [1] does the source give for `Cc1c(N)cccc1-c1cn(C2CCC(O)C2)c2ccc(C#N)cc12` (racemic) [Example 80, Trans-3-(3-amino-2-methylphenyl)-1-(3-hydroxycyclopentyl)-1H-indole-5-carbonitrile] here?
The IC50 was 24 nM.

What about the IC50 ([2]; Homo sapiens, MOLM-13, 144 h) of the same compound?
The IC50 was 390 nM.

For `Cc1cc2c(cc1C#N)c(-c1cncc(N)c1C)cn2C1CCC(O)C1` (single isomer, unassigned) [Example 87, Cis-3-(5-amino-4-methylpyridin-3-yl)-1-(3-hydroxycyclopentyl)-6-methyl-1H-indole-5-carbonitrile], which IC50 [1] is on record?
Its IC50 is 15 nM.

What about the IC50 ([2]; Homo sapiens, MOLM-13, 144 h) of the same compound?
Its IC50 is 76 nM.

`Cc1cc2c(cc1C#N)c(-c1cncc(N)c1C)cn2C1CCC(O)C1` (single isomer, unassigned) [Example 88, Trans-3-(5-amino-4-methylpyridin-3-yl)-1-(3-hydroxycyclopentyl)-6-methyl-1H-indole-5-carbonitrile] was tested. Which IC50 [1] did it give?
The IC50 was 15 nM.

What about the IC50 [2] of the same compound?
The IC50 was 90 nM.

How did the IC50 [1] turn out when `COc1ccc(-n2cc(-c3cccc(N)c3C)c3cc(C#N)c(C)cc32)cc1` [Example 65, 3-(3-amino-2-methylphenyl)-1-(4-methoxyphenyl)-6-methyl-1H-indole-5-carbonitrile] was run?
Its IC50 is 3 nM.

And the IC50 ([2]; Homo sapiens, MOLM-13, 144 h)?
The IC50 was 123 nM.

And the IC50 [3]?
Its IC50 is 315 nM.

`COc1ccc(-n2cc(-c3cncc(N)c3C)c3cc(C#N)c(C)cc32)cc1` [Example 71, 3-(5-amino-4-methylpyridin-3-yl)-1-(4-methoxyphenyl)-6-methyl-1H-indole-5-carbonitrile] was tested. Which IC50 [1] did it give?
Its IC50 is 3 nM.

And the IC50 ([2]; Homo sapiens, MOLM-13, 144 h)?
The IC50 was 51 nM.

And the IC50 [3]?
Its IC50 is 801 nM.

For `CN[C@H]1CC[C@H](n2cc(-c3cccc(N)c3C)c3cc(C#N)c(C)cc32)CC1` [Example 78, Trans-3-(3-amino-2-methylphenyl)-6-methyl-1-(4-(methylamino)cyclohexyl)-1H-indole-5-carbonitrile], which IC50 ([2]; Homo sapiens, MOLM-13, 144 h) is on record?
Its IC50 is 29 nM.

Which IC50 [1] does the source give for `Cc1c(N)cccc1-c1cn(C2CCCC(O)C2)c2ccc(C#N)cc12` (stereo not drawn) [Example 83, Trans-3-(3-amino-2-methylphenyl)-1-(3-hydroxycyclohexyl)-1H-indole-5-carbonitrile] here?
Its IC50 is 60 nM.

What about the IC50 ([2]; Homo sapiens, MOLM-13, 144 h) of the same compound?
The IC50 was 270 nM.

Which IC50 [3] does the source give for `Cc1cc2c(cc1C#N)c(-c1cccc(N)c1C)cn2[C@H]1CC[C@H](O)CC1` [Example 93, Trans-3-(3-amino-2-methylphenyl)-1-(4-hydroxycyclohexyl)-6-methyl-1H-indole-5-carbonitrile] here?
Its IC50 is 73 nM.

With `Cc1cc2c(cc1C#N)c(-c1cncc(N)c1C)cn2[C@H]1CC[C@H](O)CC1` [Example 94, Trans-3-(5-amino-4-methylpyridin-3-yl)-1-(4-hydroxycyclohexyl)-6-methyl-1H-indole-5-carbonitrile] as the compound, how does the IC50 [1] read?
The IC50 was 16 nM.

And the IC50 ([2]; Homo sapiens, MOLM-13, 144 h)?
The IC50 was 73 nM.

Which IC50 ([2]; Homo sapiens, MOLM-13, 144 h) does the source give for `Cc1cc2c(cc1C#N)c(-c1cccc(N)c1C)cn2[C@H]1CC[C@@H](O)CC1` [Example 95, Cis-3-(3-amino-2-methylphenyl)-1-(4-hydroxycyclohexyl)-6-methyl-1H-indole-5-carbonitrile] here?
Its IC50 is 49 nM.

How did the IC50 [1] turn out when `Cc1cc2c(cc1C#N)c(-c1cccc(N)c1C)cn2C1CCNCC1` [Example 97, 3-(3-amino-2-methylphenyl)-6-methyl-1-(piperidin-4-yl)-1H-indole-5-carbonitrile] was run?
Its IC50 is 14 nM.

And the IC50 ([2]; Homo sapiens, MOLM-13, 144 h)?
The IC50 was 926 nM.

With `Cc1cc2c(cc1C#N)c(-c1cccc(N)c1C)cn2[C@H]1C[C@H](O)C1` [Example 100, Trans-3-(3-amino-2-methylphenyl)-1-(3-hydroxycyclobutyl)-6-methyl-1H-indole-5-carbonitrile] as the compound, how does the IC50 ([2]; Homo sapiens, MOLM-13, 144 h) read?
The IC50 was 48 nM.
